Patent US10570184B2, “GLP-1/glucagon receptor co-agonists for medical use” (Novo Nordisk A/S, priority 2014, dated 2020)
Starred links: 1 amine or outer side, 2 acyl side, 3 side chain; linkers in the order of their positions; H or OH if unused. Non-standard residues stand in square brackets, D forms with d. Residues, ends and D or L forms follow the SMILES beside them. Groups on a side chain read outwards from the residue. *: point of attachment. C18 diacid = O=C(O)CCCCCCCCCCCCCCCCC(=O)*; γGlu = O=C(O)[C@H](CCC(=O)[*:2])N[*:1]; Ac4c = NC1(C(=O)O)CCC1; AEEA = NCCOCCOCC(=O)O; Aib = CC(C)(N)C(=O)O

How the values were obtained:
[1] = target: T1, human GLP-1 receptor (Homo sapiens, UniProt P43220); assay: Assay (I)(a) GLP-1 receptor activation, CRE luciferase reporter gene assay in BHK cells; format: cell-based; settings: without presence of serum albumin; read-out: GLP-1R EC50 (pM) [Assay (I)(a)]
T1 construct: expressed in transfected cells; host or cells: membranes of BHK cells (parent BHKTS13), clone FCW467-12A
T1 sequence (P43220 24-463): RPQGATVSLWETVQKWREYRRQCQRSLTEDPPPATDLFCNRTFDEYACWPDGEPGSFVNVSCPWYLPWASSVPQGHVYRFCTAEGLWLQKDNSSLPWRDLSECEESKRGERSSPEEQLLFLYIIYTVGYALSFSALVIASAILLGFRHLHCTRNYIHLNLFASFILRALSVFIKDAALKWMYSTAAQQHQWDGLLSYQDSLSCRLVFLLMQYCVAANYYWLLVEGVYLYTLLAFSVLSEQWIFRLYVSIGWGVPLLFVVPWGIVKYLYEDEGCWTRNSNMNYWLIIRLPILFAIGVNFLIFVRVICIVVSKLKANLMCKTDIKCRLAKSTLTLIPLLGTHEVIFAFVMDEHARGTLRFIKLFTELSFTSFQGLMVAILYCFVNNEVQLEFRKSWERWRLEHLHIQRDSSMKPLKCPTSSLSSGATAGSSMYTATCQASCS
How it was run: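 Stable BHK clone expressing human GLP-1 receptor with CRE-driven firefly luciferase, 5×10EE3 cells/well in medium with 2% ovalbumin and 0.2% Pluronic F-68. Compounds at 1×10EE-13 to 1×10EE-6 M final, 3 h at 37° C.; luminescence read, EC50 (pM) from four-parameter fit.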

[2] = Assay (III) ThT fibrillation assay for physical stability; format: physicochemical; settings: 250 μM in 10 mM HEPES buffer, 37° C., shaking 960 rpm
How it was run: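 Glucagon derivative at 250 μM in 10 mM HEPES pH 7.5 with 1 μM ThT was incubated at 37 °C under 960 rpm orbital shaking. Fluorescence (ex 444/em 485 nm) was read every 20 min and fitted for lag time (t0−2τ) and kapp (1/τ). Recovery was soluble peptide after centrifugation/filtration, by RP-HPLC, as percent of initial.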

Compound	EC50 [1]	ThT Assay Lag time (h) [Assay (III), pH 7.5] [2]
CC[C@H](C)[C@H](NC(=O)[C@H](CC(C)C)NC(=O)[C@H](Cc1c[nH]c2ccccc12)NC(=O)[C@H](CCC(N)=O)NC(=O)[C@@H](NC(=O)[C@H](Cc1ccccc1)NC(=O)[C@H](CC(=O)O)NC(=O)[C@H](CCCNC(=N)N)NC(=O)[C@H](C)NC(=O)[C@H](CCCNC(=N)N)NC(=O)[C@H](CCCNC(=N)N)NC(=O)[C@H](CO)NC(=O)[C@H](CCC(=O)O)NC(=O)[C@H](CC(C)C)NC(=O)[C@H](Cc1ccc(O)cc1)NC(=O)[C@H](CCCNC(=N)N)NC(=O)[C@H](CO)NC(=O)[C@H](Cc1ccc(O)cc1)NC(=O)[C@H](CC(=O)O)NC(=O)[C@H](CO)NC(=O)[C@@H](NC(=O)[C@H](Cc1ccccc1)NC(=O)[C@@H](NC(=O)CNC(=O)[C@H](CCC(N)=O)NC(=O)C1(NC(=O)[C@@H](N)Cc2c[nH]cn2)CCC1)[C@@H](C)O)[C@@H](C)O)C(C)C)C(=O)N[C@@H](CCCCNC(=O)CC[C@H](NC(=O)COCCOCCNC(=O)CC[C@H](NC(=O)COCCOCCNC(=O)CC[C@H](NC(=O)COCCOCCNC(=O)CC[C@H](NC(=O)CC[C@H](NC(=O)CCCCCCCCCCCCCCCCC(=O)O)C(=O)O)C(=O)O)C(=O)O)C(=O)O)C(=O)O)C(=O)N[C@H](C(N)=O)[C@@H](C)O [Chem. 36, N^ε28-[(4S)-4-carboxy-4-[[2-[2-[2-[[(4S)-4-carboxy-4-[[2-[2-[2-[[(4S)-4-carboxy-4-[[2-[2-[2-[[(4S)-4-carboxy-4-[[(4S)-4-carboxy-4-(17-carboxyheptadecanoylamino)butanoyl]amino]butanoyl]amino]ethoxy]ethoxy]acetyl]amino]butanoyl]amino]ethoxy]ethoxy]acetyl]amino]butanoyl]amino]ethoxy]ethoxy]acetyl]amino]butanoyl]-[Acb2,Arg12,Glu15,Arg20,Ile27,Lys28]-Glucagon amide] (H-H[Ac4c]QGTFTSDYSRYLESRRARDFVQWLIK([γGlu-AEEA-γGlu-AEEA-γGlu-AEEA-γGlu-γGlu-C18 diacid])T-NH2; N-terminus assumed)	4 pM	3.7 h
CC[C@H](C)[C@H](NC(=O)[C@H](CC(C)C)NC(=O)[C@H](Cc1c[nH]c2ccccc12)NC(=O)[C@H](CCC(N)=O)NC(=O)[C@@H](NC(=O)[C@H](Cc1ccccc1)NC(=O)[C@H](CC(=O)O)NC(=O)[C@H](CCCNC(=N)N)NC(=O)[C@H](C)NC(=O)[C@H](CCCNC(=N)N)NC(=O)[C@H](CCCNC(=N)N)NC(=O)[C@H](CO)NC(=O)[C@H](CCC(=O)O)NC(=O)[C@H](CC(C)C)NC(=O)[C@H](Cc1ccc(O)cc1)NC(=O)[C@H](CCCNC(=N)N)NC(=O)[C@H](CO)NC(=O)[C@H](Cc1ccc(O)cc1)NC(=O)[C@H](CC(=O)O)NC(=O)[C@H](CO)NC(=O)[C@@H](NC(=O)[C@H](Cc1ccccc1)NC(=O)[C@@H](NC(=O)CNC(=O)[C@H](CCC(N)=O)NC(=O)C(C)(C)NC(=O)[C@@H](N)Cc1c[nH]cn1)[C@@H](C)O)[C@@H](C)O)C(C)C)C(=O)N[C@@H](CCCCNC(=O)CC[C@H](NC(=O)COCCOCCNC(=O)CC[C@H](NC(=O)COCCOCCNC(=O)CC[C@H](NC(=O)COCCOCCNC(=O)CC[C@H](NC(=O)CC[C@H](NC(=O)CCCCCCCCCCCCCCCCC(=O)O)C(=O)O)C(=O)O)C(=O)O)C(=O)O)C(=O)O)C(=O)N[C@H](C(N)=O)[C@@H](C)O [Chem. 37, N^28-[(4S)-4-carboxy-4-[[2-[2-[2-[[(4S)-4-carboxy-4-[[2-[2-[2-[[(4S)-4-carboxy-4-[[2-[2-[2-[[(4S)-4-carboxy-4-[[(4S)-4-carboxy-4-(17-carboxyheptadecanoylamino)butanoyl]amino]butanoyl]amino]ethoxy]ethoxy]acetyl]amino]butanoyl]amino]ethoxy]ethoxy]acetyl]amino]butanoyl]amino]ethoxy]ethoxy]acetyl]amino]butanoyl]-[Aib2,Arg12,Glu15,Arg20,Ile27,Lys28]-Glucagon amide] (H-H[Aib]QGTFTSDYSRYLESRRARDFVQWLIK([γGlu-AEEA-γGlu-AEEA-γGlu-AEEA-γGlu-γGlu-C18 diacid])T-NH2; N-terminus assumed)	4 pM	6.3 h
CC[C@H](C)[C@H](NC(=O)[C@H](CC(C)C)NC(=O)[C@H](Cc1c[nH]c2ccccc12)NC(=O)[C@H](CCC(N)=O)NC(=O)[C@@H](NC(=O)[C@H](Cc1ccccc1)NC(=O)[C@H](CCC(=O)O)NC(=O)[C@H](CCC(N)=O)NC(=O)[C@H](C)NC(=O)[C@H](CCCNC(=N)N)NC(=O)[C@H](CCCNC(=N)N)NC(=O)[C@H](CO)NC(=O)[C@H](CCC(=O)O)NC(=O)[C@H](CC(C)C)NC(=O)[C@H](Cc1ccc(O)cc1)NC(=O)[C@H](CCCCN)NC(=O)[C@H](CO)NC(=O)[C@H](CC(C)C)NC(=O)[C@H](CC(=O)O)NC(=O)[C@H](CO)NC(=O)[C@@H](NC(=O)[C@H](Cc1ccccc1)NC(=O)[C@@H](NC(=O)CNC(=O)[C@H](CCC(N)=O)NC(=O)C1(NC(=O)[C@@H](N)Cc2c[nH]cn2)CCC1)[C@@H](C)O)[C@@H](C)O)C(C)C)C(=O)N[C@@H](CCCCNC(=O)CC[C@H](NC(=O)COCCOCCNC(=O)COCCOCCNC(=O)CC[C@H](NC(=O)CC[C@H](NC(=O)CCCCCCCCCCCCCCCCC(=O)O)C(=O)O)C(=O)O)C(=O)O)C(=O)N[C@H](C(N)=O)[C@@H](C)O [Chem. 38, N^ε28-[(4S)-4-carboxy-4-[[2-[2-[2-[[2-[2-[2-[[(4S)-4-carboxy-4-[[(4S)-4-carboxy-4-(17-carboxyheptadecanoylamino)butanoyl]amino]butanoyl]amino]ethoxy]ethoxy]acetyl]amino]ethoxy]ethoxy]acetyl]amino]butanoyl]-[Acb2,Leu10,Glu15,Glu21,Ile27,Lys28]-Glucagon amide] (H-H[Ac4c]QGTFTSDLSKYLESRRAQEFVQWLIK([γGlu-AEEA-AEEA-γGlu-γGlu-C18 diacid])T-NH2; N-terminus assumed)	2 pM	45.0 h
